Assay results published in US4198508A, “Process for preparing 4-substituted imidazo[1,2-a]quinoxalines” (Westwood Pharmaceuticals Inc., priority 1977, dated 1980).

Assays:
Trichophyton ajelloi = test: antifungal activity, agar dilution method; assay type: cell-based
Procedure: (§1) Various compounds of this invention display antifungal and anti-yeast activity.
(§2) In Table IX below are listed the antifungal activity of a number of compounds encompassed in the present invention. These were determined by the agar dilution method as described in Chapters 2 and 3 of Methods in Microbiology, Vol. 7B, edited by J. R. Norris and D. W. Ribbons, Academic Press, New York, 1972.

Trichophyton rubrum = test: antifungal activity, agar dilution method; assay type: cell-based, Trichophyton rubrum (ATCC No. 10218 and 14001)
Procedure: as §1, §2

rat paw edema = rat paw edema assay, oral dosing; assay type: in vivo; conditions: four hours after drug
Procedure: The anti-inflammatory activity of representative compounds of this invention was determined by the rat paw edema assay both by local administration (Table XI below) and by oral dosing (Table XII below). For the oral dosing, the procedure of C. A. Winter, E. A. Risley and G. W. Nuss, Proc. Soc. Exp. Biol. Med. 111, 544 (1962) was employed with measurement taken four hours after the drug was administered. The local administration tests were carried out similarly except the irritant (carrageenan) and the test compound were injected simultaneously at time zero. Tables XI and XII report the anti-inflammatory activity of the compounds tested as % difference in the edema or swelling as compared with the control. These Tables also give the response in many instances of more than one dose level of the same drug.

[1] = system: Trichophyton mentagrophytes; test: antifungal activity, agar dilution method; assay type: cell-based, Trichophyton mentagrophytes (ATCC No. 8757 and 9129)
Procedure: as §1, §2

[2] = system: cell-mediated immune response to the antigen, Mycobacterium tuberculosis H37Ra; test: delayed hypersensitivity test; assay type: in vivo, mouse; conditions: mice, s.c.; dose to reduce edema of cell-mediated immune response by 60% versus control
Procedure: The immunosuppressant activities of the compounds of this invention were determined via the hemolysin test in mice and by the delayed hypersensitivity test. The hemolysin test used is that described in Methods in Immunology, edited by D. H. Campbell et al, W. A. Benjamin, New York 1963 pages 172-175, and measures humeral or antibody response. The delayed hypersensitivity test measures the effect of a test compound on the ability of a subject mouse to mount a cell-mediated immune response to the antigen, Mycobacterium tuberculosis H37Ra. The mouse is sensitized to the antigen by subcutaneous administration in the base of the tail. The development of the delayed hypersensitivity response may be measured at any time beginning six days after sensitization but is usually done on the ninth day as follows: The right hind paw is injected with purified protein derivative (tuberculin) while the left hind paw (control) receives physiological saline. Both paw volumes are measured after twenty-four hours and significant increase in the volume of the right hand paw is taken as a measure of an effective delayed hypersensitivity response. All compounds were administered by the subcutaneous route.
The D.H.S. (ED60) mg./kg. s.c. value appearing in column 3 is an expression of the effectiveness of the drug in reducing the edema that accompanies the cell-mediated immune response. […]

[3] = system: humeral or antibody response; test: hemolysin test in mice; assay type: in vivo, mouse; conditions: s.c., dose to reduce antibody activity by 50% versus control

Row | Structure (SMILES) | Parts Per Million Inhibitions of T. ajelloi (Trichophyton ajelloi) [Parts Per Million] | Parts Per Million Inhibitions of T. rubrum (Trichophyton rubrum) [Parts Per Million] | %Difference from Control (rat paw edema; 100 mg/kg) [%] | %Difference from Control (rat paw edema; 400 mg/kg) [%] | Parts Per Million Inhibitions of T. mentagrophytes [1] [Parts Per Million] | D.H.S. (ED60) [2] [mg/kg] | HL(ED50) [3] [mg/kg]
1 | O=[N+]([O-])c1ccc(Nc2nc3ccccc3n3ccnc23)cc1 [Compound 189] | 100 | 100 | – | – | – | – | –
2 | FC(F)(F)c1cccc(-c2nc3ccccc3n3ccnc23)c1 [Compound 136] | – | – | -9 | -25 | 100 | > 50 | 2.7
